Details of data set [1]: AUC(0→t) / Cmax: unit not given beside the values. The settings on record: rat, in vivo.
The subject of data set [2] is DN. More on the design: method as in Guo et al., 2017. To be noted: in vitro and in vivo; ref Guo et al., 2017; cited from earlier work.
Data set [3] is described as follows: in vivo. To be noted: male, Sprague-Dawley, rat, po; for half-life: t1/2.
Experimental: (§1) Thirty male Sprague–Dawley rats (200 ± 20 g) were purchased from the Nanjing Qinglongshan Experimental Animal Center (Nanjing, China). […] All rats were divided randomly into two groups: ZJTSD-dosed group (n = 27) and control group (n = 3). The ZJTSD-dosed group was given the ZJTSD solution by gavage (i.g.) at a dosage of 1 mL/100 g body weight of rats, and the control group was given 0.9% normal saline at the same dose, twice a day for a week. After the last administration, the blood was collected from the hepatic portal vein at 15 min, 30 min, 1 h, 2 h, 4 h, 6 h, 8 h, 12 h, and 24 h, and 3 rats were taken at each time point.
(§2) The blood samples of rats were centrifuged at 4,000 rpm for 10 min to obtain the serum. The serum sample (1 mL) was processed with a 3-fold volume using methanol for protein precipitation, with epicoprostanol serving as the internal standard (digoxin and clarithromycin). After vortexing for 3 min, the mixture was centrifuged at 18,000 rpm for 10 min. Subsequently, the supernatant was evaporated at 45°C using a vacuum concentrator. After evaporating the solvent, 150 μL of methanol/water (1:1, v/v) was added, vortexed, sonicated, and then centrifuged at 18,000 rpm for 10 min at 4°C. The resulting supernatant was used for further analysis.
(§3) Liquid chromatographic separation was performed using an AB SCIEX LC™ 2.0 system (AB SCIEX, United States) fitted with an Acquity UPLC BEH C18 column (100 mm × 2.1 mm, 1.7 μm; Ireland). The mobile phases in negative and positive ion modes consisted of 0.1% FA aqueous solution (A) and acetonitrile containing 0.1% FA (B). The program of the elution gradient was set as follows: 0∼5 min, 2%∼35 %B; 5∼7 min, 35%∼50%; 7∼10 min, 50%∼70%; 10∼15 min, 70%∼90 %B; 15∼18 min, 90%∼90 %B; 18∼18.5 min, 90%∼2 %B; and 18.5∼20 min, 2%∼2 %B. The injection volume was 3 µL. The flow rate and the column temperature were set at 0.3 mL/min and 40°C, respectively.
(§4) The mass spectrometry analysis was performed on a SCIEX ZenoTOF™ 7600 system (AB SCIEX, United States), which was calibrated in the high-sensitivity mode for every 10 samples. Spectra were acquired in the TOF/MS-IDA-TOF MS/MS mode with the ESI source operating in positive and negative ion modes. MS parameters were set as follows: ionization source, ESI; spray voltage, 5,500 kV/–4,500 kV; collision energy, 40 V/–40 V; declustering potential, 80 V/–80 V; ion source temperature, 550°C; and scan range, 100–1250 m/z. Data acquisition and processing were performed using SCIEX OS 2.2 and PeakView 2.2.
(§5) A semi-quantitative method was adopted based on the correction peak area versus time ([Wang et al., 2011]; [Lin et al., 2019]). The mean serum time-course profile of pharmacokinetics based on the peak area ratio versus time was plotted using Origin 2018. The kinetic analysis of the peak area ratio (×1,000)–time curve was calculated using Phoenix WinNonlin 8.1 (Phoenix, American) software and illustrated.
The subject of data set [4] is DN mice. More on the design: method as in Tian et al., 2018. The settings on record: ref Tian et al., 2018; cited from earlier work.
A short description of data set [5]: Multi-compound pharmacokinetics of ZJTSD in rat serum, semi-quantitative UPLC-Q/TOF-MS (peak area ratio versus time, non-compartmental). The settings on record: male, Sprague-Dawley, rat, serum (hepatic portal vein blood), po, 1 mL/100 g body weight.
Experimental: as §1, §2, §3, §4, §5

We go through 18 compounds from paper PMC10957775, “Integrated chemical characterization, metabolite profiling, and pharmacokinetics analysis of Zhijun Tangshen Decoction by UPLC-Q/TOF-MS” (Frontiers in Pharmacology, 2024).

Where two headings read alike, the source gives them in different places.

As to `O=C(O)c1cc2c(cc1O)C(=O)c1ccccc1C2=O` [M28], in data set [1] (po), the “AUC (in words)” value was “greater”; the Tmax is recorded as no more than 3.5 h; the “elimination half-life (t1/2)” value is on record as “less than 4 h”; the “pharmacokinetic behavior compared with other prototype compounds and metabolites (in words)” value is reported as “better pharmacokinetic behavior”.
As for `O=C1c2ccccc2C(=O)c2ccccc21` [M52], in data set [1] (po), the “AUC (in words)” value is “greater”; the “Cmax / peak concentration (in words)” value was “higher peak concentrations”; the Tmax was greater than 4 h; the “pharmacokinetic behavior compared with other prototype compounds and metabolites (in words)” value was “better pharmacokinetic behavior”.
On to `Cc1cc(O)c2c(c1)C(=O)c1cccc(O)c1C2=O` [M56], for which, in data set [1] (po), the “AUC (in words)” value is “greater”, the “Cmax / peak concentration (in words)” value is “higher peak concentrations”, the Tmax is no more than 3.5 h and the “elimination half-life (t1/2)” value is given as greater than 7.5 h. Also, in data set [1] (po), the “pharmacokinetic behavior compared with other prototype compounds and metabolites (in words)” value is given as “better pharmacokinetic behavior”; the “time to peak (in words)” value is given as “faster time to peak”.
Take `Cc1cc(O)c2c(c1)C(=O)c1cc(O)ccc1C2=O` [M61]: in data set [1] (po), the “AUC (in words)” value was “greater”.
For the compound `CC(=O)CCc1ccc(OS(=O)(=O)O)cc1` [M85], in data set [1] (po), the “AUC (in words)” value was “greater”; the Tmax is given as no more than 3.5 h; the “elimination half-life (t1/2)” value is given as “less than 4 h”; the “pharmacokinetic behavior compared with other prototype compounds and metabolites (in words)” value is “better pharmacokinetic behavior”.
Regarding `Oc1ccccc1O` [M94], in data set [1] (po), the “AUC (in words)” value was “greater”; the Tmax is recorded as no more than 3.5 h; the “elimination half-life (t1/2)” value is reported as greater than 7.5 h; the “pharmacokinetic behavior compared with other prototype compounds and metabolites (in words)” value is on record as “better pharmacokinetic behavior”.
Consider `C[N+](C)(C)CCOP(=O)([O-])OCC(O)COCCCCCCCCCCCCCCC=O` (stereo not shown) [M99], for which, in data set [1] (po), the Tmax was no more than 3.5 h; the “elimination half-life (t1/2)” value is listed as greater than 7.5 h; the “pharmacokinetic behavior compared with other prototype compounds and metabolites (in words)” value is given as “better pharmacokinetic behavior”.
Take `Cc1cc(O[C@@H]2O[C@H](CO)[C@@H](O)[C@H](O)[C@H]2O)cc2oc(CC(C)O)cc(=O)c12` (stereo partly drawn) [P7, 2-(2-Hydroxypropyl)-5-methyl-7-hydroxychromone-7-O-β-D-glucoside]: in data set [1], the “AUC(0→t)” value was 1.05±0.08, the Cmax turned out to be 0.23±0.06, the “MRT(0→t)” value is given as 6.76±1.16 and the Tmax came to 0.92±0.95. The same compound registered a t1/2 in data set [1] of 7.53±1.65.
For `COc1ccc2c(c1OC)O[C@H]1c3ccc(O)cc3OC[C@@H]21` [P8, Methylnissolin], in data set [1], the “AUC(0→t)” value was determined as 3.73±0.45, the Cmax came out at 0.77±0.18, the “MRT(0→t)” value was found to be 6.10±1.53 and the Tmax was 0.42±0.14. Besides, in data set [1], the t1/2 is recorded as 4.16±2.01.
`COc1cc2c(=O)c(-c3ccc(O)cc3)coc2cc1O[C@@H]1O[C@H](CO)[C@@H](O)[C@H](O)[C@H]1O` [P9, Glycitin]: in data set [1], the “AUC(0→t)” value is reported as 1.99±0.28, the Cmax is listed as 0.80±0.39, the “MRT(0→t)” value amounted to 4.70±1.01 and the Tmax amounted to 0.92±0.95. This compound also came in with a t1/2 in data set [1] of 3.56±1.89.
A word on the MRT last: it is a mean duration of stay, worked out from the concentration-time curve. A word on the half-life: it is the time in which the quantity being followed falls by half. With `Cc1cc(O)c2c(c1)C(=O)c1cccc(O)c1C2=O` [P13, Chrysophanol], in data set [1], the “AUC(0→t)” value came out at 119599.26±21102.35 and the Cmax came to 26478.39±12536.14. Moreover, the “level of exposure in the blood (in words)” value in data set [1] (po) was “higher level of exposure”. In addition, the “effect on progression of DN” value in data set [2] is recorded as “significantly slowed the progression of DN”. Also, in data set [3], the MRT last was found to be 4.89 ± 0.61 h, the Tmax is 1.67 ± 2.02 h and the half-life is 2.42 ± 1.63 h.
On to `Cc1cc(O)c2c(c1)C(=O)c1cc(O)cc(O)c1C2=O` [P16, Emodin], for which the “effect on urinary albumin, serum creatinine and blood urea nitrogen” value in data set [4] was “improved urinary albumin, serum creatinine, and blood urea nitrogen levels”. Moreover, the “detection in serum / absorbed form” value in data set [1] (po) was “absorbed as prototype compounds”. Besides, in data set [5], the mean residence time MRT last worked out at 5.84 ± 0.37 h and the Tmax was found to be 2.83 ± 2.02 h. Moreover, in data set [5] (t1/2, prototype compounds of ZJTSD absorbed into rat serum, mean±SD, n=3), the half-life was 8.19 ± 9.39 h.
Regarding `Cc1cc(O)c2c(c1)C(=O)c1cc(C(=O)O)cc(O)c1C2=O` [P19, 6-Methyl-rhein], in data set [1], the “AUC(0→t)” value came to 406691.82±79143.95, the Cmax was 79253.50±34585.36, the “MRT(0→t)” value is 5.64±1.31 and the t1/2 is recorded as 1.98±0.38.
`COc1cccc2c1C(=O)c1c(O)cc(C)cc1C2=O` [P20, 8-Methyl chrysophanol]: in data set [1], the “AUC(0→t)” value was 49952.22±8257.37, the Cmax is 15105.85±4254.91, the “MRT(0→t)” value turned out to be 4.30±0.34 and the Tmax was determined as 0.67±0.29. In data set [1], the t1/2 amounted to 3.38±0.96. Besides, in data set [1] (po), the “level of exposure in the blood (in words)” value is “higher level of exposure”; the “pharmacokinetic behavior compared with other prototype compounds and metabolites (in words)” value was “better pharmacokinetic behavior”.
For `CC(CO)C1=C(O)c2ccc3c(c2C(=O)C1=O)CCCC3(C)C` (stereo not shown) [P31, Tanshinone V], in data set [1], the “AUC(0→t)” value was 269.12±44.99, the Cmax was 44.36±4.60, the “MRT(0→t)” value was 5.85±0.84 and the Tmax stood at 5.33±2.31. Also, the t1/2 in data set [1] turned out to be 7.21.
As for `CCCCOC(=O)c1ccccc1C(=O)OCCCC` [P49, Dibutyl phthalate], in data set [1], the “AUC(0→t)” value is given as 542.84±7.58 and the Cmax came out at 26.50±1.13. In data set [3], the MRT last was 12.1 ± 0.17 h and the Tmax is 8.08 ± 6.78 h.
As for `CCCCCCCCCCCCCCCC(=O)OC[C@@H](O)COP(=O)([O-])OCC[N+](C)(C)C` [P50, 1-O-Hexadecanoyl-sn-glycero-3-phosphocholine], in data set [1], the “AUC(0→t)” value is 149276.86±8351.53 and the Cmax is 11488.73±739.96. In data set [3], the MRT last stood at 10.2 ± 0.58 h, the Tmax came out at 1 ± 0.87 h and the half-life is 21.9 ± 12.8 h.
`O=C1C[C@@H](c2ccc(O[C@@H]3O[C@H](CO)[C@@H](O)[C@H](O)[C@H]3O)cc2)Oc2cc(O)ccc21` [liquiritin]: the “detection in serum / absorbed form” value in data set [1] (po) is given as “not detected in the serum”.
